For 14 molecules, EC50 results are on record in patent US11999742B2, “Substituted pyrrolo[1,2-b]pyridazines as anthelmintics” (BOEHRINGER INGELHEIM VETMEDICA GMBH, priority 2021, dated 2024).

In experiment [1] the test system is L4 stage larvae of Dirofilaria immitis. Kind of experiment: Motility of L4 stage Dirofilaria immitis larvae, 3 days, dose response. It is filed as cell-based. The conditions noted are these: 72 h, read-out: EC50, motility of L4 stage D. immitis, three days at 37° C., 5% CO2, vs DMSO control.
For experiment [2], the system named is Haemonchus contortus L1 larvae. Description: Haemonchus contortus larval development L1 to L3, 4 days, dose response. The conditions noted are these: 96 h, read-out: EC50, development of H. contortus larvae from L1 to L3.
From the text: Biological Example 2: Screening Method to Test Activity of Compounds Against Haemonchus contortus
Experiment [3] concerns Microfilaria of Dirofilaria immitis. Kind of experiment: Motility of Dirofilaria immitis microfilariae in microtiter plate, 3 days, dose response. The conditions noted are these: 72 h, read-out: EC50, motility of D. immitis microfilaria, three days at 37° C., 5% CO2, vs DMSO control. It is filed as cell-based.

With `CC(C)c1c(C(=O)N[C@H]2CCOc3ccccc32)cnn2c(-c3cc(Cl)cc(Cl)c3)c(F)cc12` [Compound A466], the EC50 in experiment [1] is 10 to 100 nM; in experiment [2], 100 to 1000 nM; in experiment [3], 10 to 100 nM.
With `CC(C)(C)c1c(C(=O)N[C@H]2CCOc3ccccc32)cnn2c(-c3cc(F)cc(F)c3F)c(Cl)cc12` [Compound A486], the EC50 in experiment [1], in experiment [2] and in experiment [3] was below 10 nM in each case.
On to `CC(C)c1c(C(=O)N[C@H]2CCOc3ccccc32)cnn2c(-c3cc(Cl)cc(Cl)c3)c(Cl)cc12` [Compound A463], for which the half-maximal effective concentration (EC50) was 10 to 100 nM in experiment [1], 10 to 100 nM in experiment [2] and below 10 nM in experiment [3].
Regarding `Cc1cc2c(N3CC(F)(F)C3)c(C(=O)N[C@H]3CCOc4ccccc43)cnn2c1-c1cc(Cl)cc(Cl)c1Cl` [Compound A505], the concentration for a half-maximal effect (EC50) in experiment [1] was below 10 nM; in experiment [2], 10 to 100 nM; in experiment [3], below 10 nM.
As for `Cc1cc2c(C(C)C)c(C(=O)N[C@H]3CCOc4ccccc43)cnn2c1-c1cc(F)cc(F)c1F` [Compound A513, N-[(4S)-3,4-dihydro-2H-1-benzopyran-4-yl]-6-methyl-4-(propan-2-yl)-7-(2,3,5-trifluorophenyl)pyrrolo[1,2-b]pyridazine-3-carboxamide], the EC50 in experiment [1] was below 10 nM; in experiment [2], 10 to 100 nM; in experiment [3], below 10 nM.
Regarding `Cc1cc2c(C(C)(C)C)c(C(=O)N[C@H]3CCOc4ccccc43)cnn2c1-c1cc(F)cc(F)c1F` [Compound A471], the concentration for a half-maximal effect (EC50) in experiment [1], in experiment [2] and in experiment [3] was below 10 nM each time.
Consider `Cc1cc2c(C(C)(C)C)c(C(=O)N[C@H]3CCOc4ncsc43)cnn2c1-c1cc(F)cc(Cl)c1Cl` [Compound A551], for which the concentration for a half-maximal effect (EC50) in experiment [1], in experiment [2] and in experiment [3] was 10 to 100 nM throughout.
`Cc1cc2c(C(C)(C)C)c(C(=O)N[C@H]3CCc4sc(Br)nc43)cnn2c1-c1cc(F)cc(Cl)c1Cl` [Compound A536a]: the EC50 was 10 to 100 nM in experiment [1], 10 to 100 nM in experiment [2] and below 10 nM in experiment [3].
Take `CN(C)c1c(C(=O)N[C@H]2CCOc3ccccc32)cnn2c(-c3cc(F)cc(F)c3F)c(Cl)cc12` [Compound A474]: the 50% effective concentration (EC50) is below 10 nM in experiment [1], 10 to 100 nM in experiment [2] and below 10 nM in experiment [3].
Turning to `CC(C)(C)c1c(C(=O)NN2CCOc3ccccc32)cnn2c(-c3cc(Cl)cc(Cl)c3)c(Cl)cc12` [Compound A516], the EC50 in experiment [1] is below 10 nM; in experiment [2] it was 10 to 100 nM; in experiment [3] it was below 10 nM.
Take `CC(C)c1c(C(=O)N[C@H]2CCOc3ccccc32)cnn2c(-c3cc(F)cc(Cl)c3Cl)c(Cl)cc12` [Compound A523, 6-chloro-7-(2,3-dichloro-5-fluorophenyl)-N-[(4S)-3,4-dihydro-2H-1-benzopyran-4-yl]-4-(propan-2-yl)pyrrolo[1,2-b]pyridazine-3-carboxamide]: the 50% effective concentration (EC50) in experiment [1], in experiment [2] and in experiment [3] was below 10 nM throughout.
With `Cc1cc2c(C(C)(C)C)c(C(=O)N[C@H]3CCOc4ccccc43)cnn2c1N1CCC(F)(F)CC1` [Compound A527], the values for the EC50 in experiment [1], in experiment [2] and in experiment [3] were 10 to 100 nM, 100 to 1000 nM and 100 to 1000 nM, respectively.
Turning to `Cc1cc2c(N(C)C)c(C(=O)N[C@H]3CCOc4ccccc43)cnn2c1-c1cc(F)cc(Cl)c1Cl` [Compound A493, 7-(2,3-dichloro-5-fluorophenyl)-N-[(4S)-3,4-dihydro-2H-1-benzopyran-4-yl]-4-(dimethylamino)-6-methylpyrrolo[1,2-b]pyridazine-3-carboxamide], the half-maximal effective concentration (EC50) in experiment [1], in experiment [2] and in experiment [3] was below 10 nM throughout.
`Cc1cc2c(C(C)(C)C)c(C(=O)N[C@H]3CCc4cccnc43)cnn2c1-c1cc(F)cc(Cl)c1Cl` [Compound A544]: the EC50 in experiment [1] lay in the range of 100 to 1000 nM; in experiment [2], 100 to 1000 nM; in experiment [3] it was 10 to 100 nM.

As a reminder, the EC50 is the concentration giving half of the maximal effect.
